Test system: staphylococcus hemolyticus
Assay: Growth of underarm bacteria on agar plates coated with stick formulation, colony count
Type: cell-based
Settings: for Bacteria count: 37° C., 16 hours, 0% control count 172; for Effect on growth / colony formation of staphylococcus hemolyticus (in words): sticks with 5-15% lauric acid coated on agar
Experimental: Four simplified stick compositions, each comprising 20% stearyl alcohol gellant and 0%, 5%, 10% and 15% lauric acid, respectively, were prepared. Stearyl alcohol is not considered to be an antibacterial agent. The remainder of each stick consisted of C12-C15 alkyl benzoates, which are synthetic emollients with no antibacterial activity.
A thin layer of each formulation was coated onto an agar plate, by moving the stick across the surface of the plate. A solution of staphylococcus hemolyticus bacteria at 0.1 optical density as measured by UV spectroscopy was diluted by a factor of 40. […] of the bacterial solution was then applied to the agar plate. The plate was incubated at 37° C. for 16 hours. The number of colonies formed on each plate was then recorded.

## CCCCCCCCCCCC(=O)O [Laurie acid, lauric acid]
5% lauric acid in stick with 20% stearyl alcohol and C12-C15 alkyl benzoates
  Bacteria count: 120
10% lauric acid in stick with 20% stearyl alcohol and C12-C15 alkyl benzoates
  Bacteria count: 102
15% lauric acid in stick with 20% stearyl alcohol and C12-C15 alkyl benzoates
  Bacteria count: 49
  Effect on growth / colony formation of staphylococcus hemolyticus (in words): inhibit the growth
Listed as lauric acid
  Effect on growth / colony formation of staphylococcus hemolyticus (in words): reduction on the number of bacterial colonies formed
